Test results taken from US6737383B1, “Herbicidal oxadiazolidines” (priority 1999, dated 2004).

How the values were obtained:
bedstraw = test: Test B pre/postemergence bedstraw; assay type: in vivo, Galium aparine
Outline: (§1)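 Test chemicals in a non-phytotoxic solvent mixture with surfactant were sprayed preemergence onto planted seeds and postemergence onto plants 2 to 18 cm tall (1- to 4-leaf stage). After twelve to sixteen days in a greenhouse, injury was visually rated against untreated controls from 0 (no effect) to 10 (complete control).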

blackgrass = test: Test B pre/postemergence blackgrass; assay type: in vivo, Alopecurus myosuroides
Outline: as §1

surinam grass = test: Test B pre/postemergence surinam grass; assay type: in vivo, Brachiaria decumbens
Outline: as §1

corn = test: Test B pre/postemergence corn; assay type: in vivo, Zea mays
Outline: as §1

giant foxtail = test: Test B pre/postemergence giant foxtail; assay type: in vivo, Setaria faberii
Outline: as §1

morningglory = test: Test B pre/postemergence morningglory; assay type: in vivo, Ipomoea hederacea
Outline: as §1

pigweed = test: Test B pre/postemergence pigweed; assay type: in vivo, Amaranthus retroflexus
Outline: as §1

rape = test: Test B pre/postemergence rape; assay type: in vivo, Brassica napus
Outline: as §1

soybean = test: Test B pre/postemergence soybean; assay type: in vivo, Glycine max
Outline: as §1

sugar beet = test: Test B pre/postemergence sugar beet; assay type: in vivo, Beta vulgaris
Outline: as §1

velvetleaf = test: Test B pre/postemergence velvetleaf; assay type: in vivo, Abutilon theophrasti
Outline: as §1

purple nutsedge = test: Test B pre/postemergence purple nutsedge; assay type: in vivo, Cyperus rotundus
Outline: as §1

rice = test: Test B flood test rice; assay type: in vivo, Oryza sativa
Outline: (§2)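 Read-out is a visual response score from 0 (no effect) to 10 (complete control), assigned by comparison with untreated controls. Treatment was applied at the 2-leaf stage, and plants stayed in the greenhouse for twelve to sixteen days before scoring.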

smallflower flatsedge = test: Test B flood test smallflower flatsedge; assay type: in vivo, Cyperus difformis
Outline: as §2

duck salad = test: Test B flood test duck salad; assay type: in vivo, Heteranthera limosa
Outline: as §2

bamyardgrass = test: Test B flood test barnyardgrass; assay type: in vivo, Echinochloa crus-galli
Outline: as §2

[1] = Postemergence, Rate 250 g/ha, scale 0 to 10, 0 no effect, 10 complete control
[2] = Postemergence, Rate 1000 g/ha, scale 0 to 10 (0 no effect, 10 complete control)
[3] = Preemergence, Rate 125 g/ha, scale 0 to 10 (0 no effect, 10 complete control)
[4] = Preemergence, Rate 250 g/ha, scale of 0 to 10 where 0 is no effect and 10 is complete control
[5] = Preemergence, Rate 500 g/ha, scale 0 (no effect) to 10 (complete control)
[6] = Rate 125 g/ha, Postemergence, scale 0 to 10, 0 no effect, 10 complete control
[7] = Rate 500 g/ha, Postemergence, 0 to 10 scale (0 no effect, 10 complete control)
[8] = Rate 1000 g/ha, Preemergence, scale 0 to 10 (0 no effect, 10 complete control)
[9] = Rate 125 g/ha, Postemergence section (flood test species), scale 0 to 10, 0 no effect, 10 complete control
[10] = Rate 500 g/ha, Postemergence section of Table B, 0 to 10 scale (0 no effect, 10 complete control)
[11] = flood test, listed under Postemergence, Rate 250 g/ha, scale 0 to 10, 0 no effect, 10 complete control

CC(C)N(C(=O)n1oc(=O)n(-c2ccccc2Cl)c1=O)c1ccc(F)cc1 [Compound 8]
Bedstraw plant response rating (bedstraw; [1]): 2
Bedstraw plant response rating (bedstraw; [2]): 3
Plant response rating, Bedstraw (bedstraw; [3]): 0
Plant response rating, Bedstraw (bedstraw; [4]): 0
Bedstraw plant response rating (bedstraw; [5]): 0
Bedstraw plant response rating (bedstraw; [6]): 2
Bedstraw plant response rating (bedstraw; [7]): 3
Plant response rating, Bedstraw (bedstraw; [8]): 0
Blackgrass plant response rating (blackgrass; [1]): 2
Blackgrass plant response rating (blackgrass; [2]): 5
Plant response rating, Blackgrass (blackgrass; [3]): 0
Plant response rating, Blackgrass (blackgrass; [4]): 0
Blackgrass plant response rating (blackgrass; [5]): 0
Blackgrass plant response rating (blackgrass; [6]): 0
Blackgrass plant response rating (blackgrass; [7]): 2
Plant response rating, Blackgrass (blackgrass; [8]): 4
B. signalgrass plant response rating (surinam grass; [1]): 0
B. signalgrass plant response rating (surinam grass; [2]): 3
Plant response rating, B. signalgrass (surinam grass; [3]): 0
Plant response rating, B. signalgrass (surinam grass; [4]): 4
B. signalgrass plant response rating (surinam grass; [5]): 5
B. signalgrass plant response rating (surinam grass; [6]): 0
B. signalgrass plant response rating (surinam grass; [7]): 0
Plant response rating, B. signalgrass (surinam grass; [8]): 6
Corn plant response rating (corn; [1]): 0
Corn plant response rating (corn; [2]): 3
Plant response rating, Corn (corn; [3]): 0
Plant response rating, Corn (corn; [4]): 0
Corn plant response rating (corn; [5]): 0
Corn plant response rating (corn; [6]): 0
Corn plant response rating (corn; [7]): 0
Plant response rating, Corn (corn; [8]): 3
Giant foxtail plant response rating (giant foxtail; [1]): 0
Giant foxtail plant response rating (giant foxtail; [2]): 4
Plant response rating, Giant foxtail (giant foxtail; [3]): 5
Plant response rating, Giant foxtail (giant foxtail; [4]): 9
Giant foxtail plant response rating (giant foxtail; [5]): 10
Giant foxtail plant response rating (giant foxtail; [6]): 0
Giant foxtail plant response rating (giant foxtail; [7]): 2
Plant response rating, Giant foxtail (giant foxtail; [8]): 10
Morningglory plant response rating (morningglory; [1]): 0
Morningglory plant response rating (morningglory; [2]): 6
Plant response rating, Morningglory (morningglory; [3]): 0
Plant response rating, Morningglory (morningglory; [4]): 0
Morningglory plant response rating (morningglory; [5]): 0
Morningglory plant response rating (morningglory; [6]): 0
Morningglory plant response rating (morningglory; [7]): 2
Plant response rating, Morningglory (morningglory; [8]): 0
Redroot pigweed plant response rating (pigweed; [1]): 0
Redroot pigweed plant response rating (pigweed; [2]): 5
Plant response rating, Redroot pigweed (pigweed; [3]): 4
Plant response rating, Redroot pigweed (pigweed; [4]): 5
Redroot pigweed plant response rating (pigweed; [5]): 5
Redroot pigweed plant response rating (pigweed; [6]): 0
Redroot pigweed plant response rating (pigweed; [7]): 0
Plant response rating, Redroot pigweed (pigweed; [8]): 7
Rape plant response rating (rape; [1]): 0
Rape plant response rating (rape; [2]): 0
Plant response rating, Rape (rape; [3]): 0
Plant response rating, Rape (rape; [4]): 0
Rape plant response rating (rape; [5]): 0
Rape plant response rating (rape; [6]): 0
Rape plant response rating (rape; [7]): 0
Plant response rating, Rape (rape; [8]): 0
Soybean plant response rating (soybean; [1]): 4
Soybean plant response rating (soybean; [2]): 5
Plant response rating, Soybean (soybean; [3]): 0
Plant response rating, Soybean (soybean; [4]): 0
Soybean plant response rating (soybean; [5]): 0
Soybean plant response rating (soybean; [6]): 3
Plant response rating, Soybean (soybean; [8]): 0
Sugarbeets plant response rating (sugar beet; [1]): 0
Sugarbeets plant response rating (sugar beet; [2]): 2
Plant response rating, Sugarbeets (sugar beet; [3]): 0
Plant response rating, Sugarbeets (sugar beet; [4]): 0
Sugarbeets plant response rating (sugar beet; [5]): 0
Sugarbeets plant response rating (sugar beet; [6]): 0
Plant response rating, Sugarbeets (sugar beet; [8]): 0
Velvetleaf plant response rating (velvetleaf; [1]): 0
Velvetleaf plant response rating (velvetleaf; [2]): 1
Plant response rating, Velvetleaf (velvetleaf; [3]): 0
Velvetleaf plant response rating (velvetleaf; [5]): 0
Velvetleaf plant response rating (velvetleaf; [6]): 0
Plant response rating, Velvetleaf (velvetleaf; [8]): 4
Plant response rating, Nutsedge (purple nutsedge; [3]): 0
Plant response rating, Nutsedge (purple nutsedge; [4]): 0
Nutsedge plant response rating (purple nutsedge; [5]): 0
Plant response rating, Nutsedge (purple nutsedge; [8]): 0
Rice plant response rating (rice; [2]): 0
Rice plant response rating (rice; [9]): 0
Rice plant response rating (rice; [10]): 0
Rice plant response rating (rice; [11]): 0
S. Flatsedge plant response rating (smallflower flatsedge; [2]): 0
S. Flatsedge plant response rating (smallflower flatsedge; [9]): 0
S. Flatsedge plant response rating (smallflower flatsedge; [11]): 0
Ducksalad plant response rating (duck salad; [2]): 0
Ducksalad plant response rating (duck salad; [9]): 0
Ducksalad plant response rating (duck salad; [10]): 0
Ducksalad plant response rating (duck salad; [11]): 0
Barnyardgrass plant response rating (bamyardgrass; [2]): 0
Barnyardgrass plant response rating (bamyardgrass; [9]): 0
Barnyardgrass plant response rating (bamyardgrass; [10]): 0
Barnyardgrass plant response rating (bamyardgrass; [11]): 0

CCN(CC)C(=O)n1oc(=O)n(-c2ccc(OC(F)(F)F)cc2)c1=O [Compound 12]
Bedstraw plant response rating (bedstraw; [1]): 0
Bedstraw plant response rating (bedstraw; [2]): 0
Plant response rating, Bedstraw (bedstraw; [3]): 0
Plant response rating, Bedstraw (bedstraw; [4]): 0
Bedstraw plant response rating (bedstraw; [5]): 0
Bedstraw plant response rating (bedstraw; [6]): 0
Bedstraw plant response rating (bedstraw; [7]): 0
Plant response rating, Bedstraw (bedstraw; [8]): 0
Blackgrass plant response rating (blackgrass; [1]): 0
Blackgrass plant response rating (blackgrass; [2]): 0
Plant response rating, Blackgrass (blackgrass; [3]): 0
Plant response rating, Blackgrass (blackgrass; [4]): 0
Blackgrass plant response rating (blackgrass; [5]): 2
Blackgrass plant response rating (blackgrass; [6]): 0
Blackgrass plant response rating (blackgrass; [7]): 0
Plant response rating, Blackgrass (blackgrass; [8]): 4
B. signalgrass plant response rating (surinam grass; [1]): 0
B. signalgrass plant response rating (surinam grass; [2]): 0
Plant response rating, B. signalgrass (surinam grass; [3]): 0
Plant response rating, B. signalgrass (surinam grass; [4]): 0
B. signalgrass plant response rating (surinam grass; [5]): 0
B. signalgrass plant response rating (surinam grass; [6]): 0
B. signalgrass plant response rating (surinam grass; [7]): 0
Plant response rating, B. signalgrass (surinam grass; [8]): 6
Corn plant response rating (corn; [1]): 0
Corn plant response rating (corn; [2]): 0
Plant response rating, Corn (corn; [3]): 0
Plant response rating, Corn (corn; [4]): 0
Corn plant response rating (corn; [5]): 0
Corn plant response rating (corn; [6]): 0
Corn plant response rating (corn; [7]): 0
Plant response rating, Corn (corn; [8]): 0
Giant foxtail plant response rating (giant foxtail; [1]): 0
Giant foxtail plant response rating (giant foxtail; [2]): 0
Plant response rating, Giant foxtail (giant foxtail; [3]): 0
Plant response rating, Giant foxtail (giant foxtail; [4]): 0
Giant foxtail plant response rating (giant foxtail; [5]): 2
Giant foxtail plant response rating (giant foxtail; [6]): 0
Giant foxtail plant response rating (giant foxtail; [7]): 0
Plant response rating, Giant foxtail (giant foxtail; [8]): 8
Morningglory plant response rating (morningglory; [1]): 0
Morningglory plant response rating (morningglory; [2]): 0
Plant response rating, Morningglory (morningglory; [3]): 0
Plant response rating, Morningglory (morningglory; [4]): 0
Morningglory plant response rating (morningglory; [5]): 0
Morningglory plant response rating (morningglory; [6]): 0
Morningglory plant response rating (morningglory; [7]): 0
Plant response rating, Morningglory (morningglory; [8]): 0
Redroot pigweed plant response rating (pigweed; [1]): 0
Redroot pigweed plant response rating (pigweed; [2]): 0
Plant response rating, Redroot pigweed (pigweed; [3]): 0
Plant response rating, Redroot pigweed (pigweed; [4]): 0
Redroot pigweed plant response rating (pigweed; [5]): 0
Redroot pigweed plant response rating (pigweed; [6]): 0
Redroot pigweed plant response rating (pigweed; [7]): 0
Plant response rating, Redroot pigweed (pigweed; [8]): 0
Rape plant response rating (rape; [1]): 0
Rape plant response rating (rape; [2]): 0
Plant response rating, Rape (rape; [3]): 0
Plant response rating, Rape (rape; [4]): 0
Rape plant response rating (rape; [5]): 0
Rape plant response rating (rape; [6]): 0
Rape plant response rating (rape; [7]): 0
Plant response rating, Rape (rape; [8]): 0
Soybean plant response rating (soybean; [1]): 0
Soybean plant response rating (soybean; [2]): 1
Plant response rating, Soybean (soybean; [3]): 0
Plant response rating, Soybean (soybean; [4]): 0
Soybean plant response rating (soybean; [5]): 0
Soybean plant response rating (soybean; [6]): 0
Plant response rating, Soybean (soybean; [8]): 0
Sugarbeets plant response rating (sugar beet; [1]): 0
Sugarbeets plant response rating (sugar beet; [2]): 0
Plant response rating, Sugarbeets (sugar beet; [3]): 0
Plant response rating, Sugarbeets (sugar beet; [4]): 0
Sugarbeets plant response rating (sugar beet; [5]): 0
Sugarbeets plant response rating (sugar beet; [6]): 0
Plant response rating, Sugarbeets (sugar beet; [8]): 0
Velvetleaf plant response rating (velvetleaf; [1]): 0
Velvetleaf plant response rating (velvetleaf; [2]): 0
Plant response rating, Velvetleaf (velvetleaf; [3]): 0
Plant response rating, Velvetleaf (velvetleaf; [4]): 0
Velvetleaf plant response rating (velvetleaf; [5]): 0
Velvetleaf plant response rating (velvetleaf; [6]): 0
Plant response rating, Velvetleaf (velvetleaf; [8]): 0
Nutsedge plant response rating (purple nutsedge; [1]): 0
Nutsedge plant response rating (purple nutsedge; [2]): 0
Plant response rating, Nutsedge (purple nutsedge; [3]): 0
Plant response rating, Nutsedge (purple nutsedge; [4]): 0
Nutsedge plant response rating (purple nutsedge; [5]): 0
Nutsedge plant response rating (purple nutsedge; [6]): 0
Nutsedge plant response rating (purple nutsedge; [7]): 0
Plant response rating, Nutsedge (purple nutsedge; [8]): 0
Rice plant response rating (rice; [2]): 0
Rice plant response rating (rice; [9]): 0
Rice plant response rating (rice; [10]): 0
Rice plant response rating (rice; [11]): 0
S. Flatsedge plant response rating (smallflower flatsedge; [2]): 0
S. Flatsedge plant response rating (smallflower flatsedge; [9]): 0
S. Flatsedge plant response rating (smallflower flatsedge; [11]): 0
Ducksalad plant response rating (duck salad; [2]): 0
Ducksalad plant response rating (duck salad; [9]): 0
Ducksalad plant response rating (duck salad; [10]): 0
Ducksalad plant response rating (duck salad; [11]): 0
Barnyardgrass plant response rating (bamyardgrass; [2]): 0
Barnyardgrass plant response rating (bamyardgrass; [9]): 0
Barnyardgrass plant response rating (bamyardgrass; [10]): 0
Barnyardgrass plant response rating (bamyardgrass; [11]): 0
